Measurements reported in patent publication US20130219529A1, “PROBE FOR A HAIR CELL, AND LABELLING METHOD FOR A HAIR CELL USING THE PROBE FOR A HAIR CELL” (CANON KABUSHIKI KAISHA, priority 2008, published 2013).

Columns and labels:
[1] = test system: hair cell (neuromast) of Zebrafish; assay: Staining of hair cell (neuromast) of Zebrafish juveniles with probe, fluorescence stereomicroscope image visually evaluated; format: in vivo; set-up: Fluorescence intensity: key to the marks not given beside the values; conditions: dye concentration 1 μg/mL; for Pattern of the neuromast stained (FIGS. 1 to 3): Zebrafish juveniles, in words; for Fluorescence intensity / Staining pattern: 1 hour, Zebrafish juveniles Day 7 after fertilization
Description: A staining compound (1) was dissolved in DMSO to prepare a stock solution at a concentration of 1 mg/mL. The stock solution was diluted with distilled water to prepare a hair cell staining solution 1 having a dye concentration of 1 μg/mL. Further, Egg Water was prepared by dissolving artificial seawater SEALIFE (manufactured by Marinetech Co., Ltd.) in distilled water at a concentration of 60 mg/L. Five juveniles (embryos on Day 7 after fertilization) of Zebrafish were placed into any one of wells of a 24-well multiwell plate together with feeding water. The feeding water was discharged and 1 mL of the hair cell staining solution 1 was added. After the whole had been left to stand for 1 hour, the hair cell staining solution 1 in the well was discharged and replaced by 1 mL of fresh Egg Water. In addition, such an operation that Egg Water was discharged and replaced by 1 mL of fresh Egg Water was repeated twice. One of the juveniles was taken out from the well onto a dish, the motion of the juvenile was restricted by addition of methylcellulose, and a fluorescence image was captured with a fluorescence stereomicroscope. MZ16FA manufactured by Leica Microsystems K.K. was used as a stereoscopic microscope.
An image pickup unit (a digital camera DP72 for a microscope manufactured by Olympus Corporation) of a fluorescence stereomicroscope was remodeled by removing an IR cut filter so as to capture a fluorescence image in a near-infrared wavelength region.

[2] = Excitation and fluorescence emission wavelength measured with fluorescence spectrophotometer; format: physicochemical; conditions: aqueous solution, 10 mg/mL DMSO solution diluted 500-fold with purified water
[3] = test system: neuromast (hair cell) of Zebrafish; assay: Staining intensity of neuromast at different concentrations of staining agent (fluorescence intensity per unit intake time); format: in vivo; conditions: 10, 30 and 100 ng/mL staining solutions, intensity/msec
Description: The compounds (43), (54), and (65) were selected as probes for a hair cell, and compared with FM1-43. Three kinds of staining solutions containing those staining agents were prepared at concentrations of 10 ng/mL, 30 ng/mL, and 100 ng/mL. Juveniles of (embryos on Day 7 after fertilization) of Zebrafish were stained in the same manner as that in Example 1. When a fluorescence image is acquired with a fluorescence stereomicroscope, the fluorescence intensity per unit intake time (intensity/msec) was calculated by changing an intake time (exposure time) and dividing the fluorescence intensity (Relative Fluorescence Unit, RFU) of a neuromast of the obtained fluorescence image by the intake time.

[4] = test system: juvenile neuromast (hair cell) of Zebrafish; assay: Change in staining intensity of neuromast due to morpholino knockdown of target genes (SLC25A12, TRPC2); format: in vivo; conditions: for Ratio of staining intensity (KD/control): juveniles Day 7
Description: In order to knockdown a specific gene, a mixed solution containing a morpholino antisense oligonucleotide (MO) was prepared. MO was synthesized by using GeneTools, LLC (Philomath, Oreg.). A morpholino antisense oligonucleotide (atgMO) designed so that the translation from a start codon to a protein would be inhibited was dissolved in distilled water to prepare a MO mixed solution having the following composition.
A fertilized embryo within 1 hour after fertilization (before a second cleavage period) of Zebrafish was microinjected with the MO mixed solution. A capillary made of glass (inner diameter: 0.6 mm) having a sharp extremity obtained by extending and cutting a glass tube with a PC-10 puller (manufactured by Narishige Co., Ltd.) and grinding the cross section with a EG-400 grinder (manufactured by Narishige Co., Ltd.) was used for the microinjection. Feeding water and the fertilized embryo were placed into a 10-cm dish in which 1% agarose had been bedded, and the microinjection was performed under a stereoscopic microscope. During injection, one of a manual injector IM-9A (manufactured by Narishige Co., Ltd.) and an electrical microinjector IM-30 (manufactured by Narishige Co., Ltd.) was connected to the capillary made of glass, to thereby perform infusion with pressure. The infusion amount of MO was set to 1 to 10 ng per fertilized embryo.
Because the MO mixed solution is supplemented with a dye (0.005% phenol red), the success or failure of the infusion of the MO mixed solution may be confirmed with the naked eye. Further, because the MO mixed solution is supplemented with a fluorescent protein expression vector (EGFP), on Day 3 after infusion, the success or failure of the microinjection can be confirmed after the fertilized embryo has hatched (a sample in which a signal derived from the fluorescent protein was observed also retains MO in Zebrafish).
Juveniles (embryos on Day 7 after fertilization) of Zebrafish were stained in the same manner as that in Example 1, and a change in staining condition of the hair cell was measured.
The compound (54) was selected as the probe for a hair cell and compared with FM1-43. Further, SLC25A12 and TRPC2 were selected as target genes. The staining intensity of a juvenile neuromast having unknockdown genes was used as a control, and compared with the staining intensity of a juvenile neuromast in which each of the target genes has been knockdown by representing a fluorescence image obtained with a stereoscopic microscope in numerical values.

Compound | Excitation wavelength λex [2] | Fluorescence emission wavelength λem [2] | Fluorescence intensity [1] | further results
O=S(=O)(O)CCN1/C(=C\C=C\c2oc3ccc(-c4ccccc4)cc3[n+]2CCS(=O)(=O)O)Oc2ccc(-c3ccccc3)cc21 [Staining compound 25] |  |  |  | Pattern of the neuromast stained (FIGS. 1 to 3) [1]: a portion with a smaller neuromast is selectively stained
CCN1/C(=C/C=C/C=C/C=C/C2=[N+](CC)c3ccccc3C23CCCCC3)C2(CCCCC2)c2ccccc21 [compound 67] | 750 nm | 780 nm | +++ | 
CN1/C(=C\C=C\C2=[N+](C)c3ccccc3C2(C)C)C(C)(C)c2ccccc21 [Staining compound 43] |  |  |  | Staining intensity of the hair cell compared with FM1-43 (FIG. 4) [3]: higher
CCCC/N=c1/ccc2c(-c3ccccc3S(=O)(=O)O)c3ccc(NCCCC)cc3oc-2c1 [compound 63] | 490 nm | 560 nm | +++ | 
CC1(C)C(/C=C/c2ccc3c(c2)C2CCCC2N3c2ccc(C=C(c3ccccc3)c3ccccc3)cc2)=[N+](CCC(=O)O)c2ccccc21 (stereo not shown) [compound 51] | 611 nm | 720 nm | +++ | Staining pattern [1]: S
CCC(=C\c1sc2ccccc2[n+]1CC)/C=C1/Sc2ccccc2N1CC [compound 39] | 563 nm | 569 nm | +++ | 
CCCCNS(=O)(=O)c1ccc(-c2c3ccc(=[N+](CC)CC)cc-3oc3cc(N(CC)CC)ccc23)c(S(=O)(=O)O)c1.[Na+] [compound 57] | 570 nm | 589 nm | +++ | 
CCN1/C(=C\C(C)=C\c2sc3ccccc3[n+]2CC)Sc2ccccc21 [compound 45] | 560 nm | 628 nm | +++ | 
CCN1C=C/C(=C\C=c2\s/c(=C/c3sc4ccccc4[n+]3CC)n(CC)c2=O)c2ccccc21 [compound 70] | 660 nm | 690 nm | +++ | 
CCN1C=C/C(=C/C=C/c2oc3ccccc3[n+]2CC)c2ccccc21 [Staining compound 50] |  |  |  | Pattern of the neuromast stained (FIGS. 1 to 3) [1]: a portion with a bigger neuromast is selectively stained
O=S(=O)(O)c1ccccc1-c1c2cc/c(=N/CCO)cc-2oc2cc(NCCO)ccc12 [compound 58] | 480 nm | 509 nm | +++ | 
CCCCN(CCCC)c1ccc(/C=C/c2cc[n+](CCC[N+](CC)(CC)CC)cc2)cc1.[Br-].[Br-] [FM1-43, reference compound] | 503 nm | 627 nm | +++ | Increase of staining properties by knockdown of SLC25A12 and TRPC2 genes ([4]; each of SLC25A12 and TRPC2 knockdown): about 30%; Ratio of staining intensity (KD/control) ([4]; target gene SLC25A12 knockdown): 1.36; Ratio of staining intensity (KD/control) ([4]; target gene TRPC2 knockdown): 1.35
COc1ccc2cc(N3c4ccc(/C=C/c5sc6ccccc6[n+]5CC(=O)O)cc4C4CCCC43)ccc2c1 (stereo not shown) [compound 4] | 401 nm | 516 nm | +++ | 
CCC(=C\c1sc2c3ccccc3ccc2[n+]1CC)/C=C1/Sc2c(ccc3ccccc23)N1CC [compound 40] | 344 nm | 381 nm | +++ | 
CCC[N+](CCC)=c1ccc2c(-c3ccccc3S(=O)(=O)O)c3ccc(Nc4c(C)cccc4C)cc3oc-2c1.[Na+] [compound 60] | 509 nm | 578 nm | +++ | 
COc1ccc(N2c3ccc(/C=C/C4=[N+](C)c5ccccc5C4(C)C)cc3C3CCCC32)cc1 (stereo not shown) [compound 53] | 614 nm | 669 nm | +++ | 
COc1ccc(N2c3ccc(/C=C/c4sc5ccccc5[n+]4CC(=O)O)cc3C3CCCC32)cc1 (stereo not shown) [compound 8] | 560 nm | 677 nm | +++ | 
COc1ccc(N2c3ccc(/C=C/C4=[N+](C)c5ccccc5C4(C)C)cc3C3CCCC32)cc1 (stereo not shown) [Staining compound 53] |  |  |  | Pattern of the neuromast stained (FIGS. 1 to 3) [1]: both a portion with a bigger neuromast and a portion with a smaller neuromast are simultaneously stained
CN1/C(=C\C=C\C2=[N+](C)c3ccccc3C2(C)C)C(C)(C)c2ccccc21 [compound 43] | 473 nm | 564 nm | +++ | 
CC/N=c1\cc2oc3cc(NCC)c(C)cc3c(-c3ccccc3C(=O)OCC)c-2cc1C [compound 54] | 528 nm | 550 nm | +++ | 
CN1/C(=C/C=C/C=C/C=C/C2=[N+](C)c3ccccc3C2(C)C)C(C)(C)c2ccccc21 [compound 68] | 730 nm | 760 nm | +++ | 

Second part, led by results:

Excitation wavelength λex [2] | Fluorescence emission wavelength λem [2] | Compound | Fluorescence intensity [1] | further results
429 nm | 503 nm | CC(=C\c1oc2ccccc2[n+]1CCC(=O)O)/C=C1/Oc2ccccc2N1CCC(=O)O [compound 28] | +++ | 
459 nm | 564 nm | CCC(=C\c1oc2ccc(-c3ccccc3)cc2[n+]1CC)/C=C1/Oc2ccc(-c3ccccc3)cc2N1CC [compound 16] | +++ | Staining pattern [1]: S
470 nm | 558 nm | O=S(=O)(O)CCN1/C(=C\C=C\c2oc3ccc(-c4ccccc4)cc3[n+]2CCS(=O)(=O)O)Oc2ccc(-c3ccccc3)cc21 [compound 25] | +++ | Staining pattern [1]: S
570 nm | 657 nm | O=C(O)C[n+]1c(/C=C/c2ccc3c(c2)C2CCCC2N3c2ccc(C=C(c3ccccc3)c3ccccc3)cc2)oc2ccccc21 (stereo not shown) [compound 1] | +++ | 
545 nm | 636 nm | O=C(O)C[n+]1c(/C=C/c2ccc3c(c2)C2CCCC2N3c2ccccc2)sc2ccccc21 (stereo not shown) [compound 6] | +++ | 
670 nm | 700 nm | CN1\C(=C/C=C/C=C/C2=[N+](C)c3ccc4ccccc4c3C2(C)C)C(C)(C)c2c1ccc1ccccc21 [compound 69] | +++ | 
571 nm | 620 nm | CCN1C=C/C(=C/C=C/c2oc3ccccc3[n+]2CC)c2ccccc21 [compound 50] | +++ | 
354 nm | 469 nm | CCN1/C(=C\C(C)=C\c2sc3c4ccccc4ccc3[n+]2CC)Sc2c1ccc1ccccc21 [compound 47] | +++ | 
566 nm | 611 nm | O=C(O)C[n+]1c(/C=C/c2ccc3c(c2)C2CCCC2N3Cc2ccccc2)sc2ccccc21 (stereo not shown) [compound 15] | +++ | 
